From patent US11130793B2, “GLP-1/GLP-2 dual agonists” (Zealand Pharma A/S, priority 2016, dated 2021)
pEC50: −log10 of the molar value. Like-named read-outs stand apart in the source and are kept apart here. Square brackets hold non-standard residues; d marks the D form. Peptide text beside a SMILES is read from it. Aib = CC(C)(N)C(=O)O

Experiments:
human GLP-1 receptor = target: T1, human GLP-1 receptor (Homo sapiens, UniProt P43220); assay: GLP-1 receptor potency assay (cAMP AlphaScreen, HEK293 cells stably expressing GLP-1R); type: cell-based
T1 construct: expressed in transfected cells
T1 sequence (P43220 24-463): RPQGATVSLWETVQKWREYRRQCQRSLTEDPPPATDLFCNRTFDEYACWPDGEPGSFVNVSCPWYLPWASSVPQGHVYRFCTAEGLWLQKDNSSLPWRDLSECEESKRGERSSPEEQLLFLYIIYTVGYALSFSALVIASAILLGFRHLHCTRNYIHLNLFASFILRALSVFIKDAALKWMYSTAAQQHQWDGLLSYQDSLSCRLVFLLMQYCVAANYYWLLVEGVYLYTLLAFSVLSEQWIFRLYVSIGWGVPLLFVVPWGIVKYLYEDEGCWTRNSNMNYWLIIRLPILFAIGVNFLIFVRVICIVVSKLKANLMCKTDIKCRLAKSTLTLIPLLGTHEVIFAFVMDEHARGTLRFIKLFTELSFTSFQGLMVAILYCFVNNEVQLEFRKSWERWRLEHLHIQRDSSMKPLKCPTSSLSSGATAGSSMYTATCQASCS
Procedure, shortened: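 A HEK293 clone stably expressing cloned human GLP-1R (G418-selected) was stimulated with compound. Intracellular cAMP was measured by AlphaScreen. Responses were normalized to positive and vehicle controls, and EC50 and maximal response were fitted by 4-parameter logistic regression.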

human GLP-2 receptor [1] = target: T2, human GLP-2 receptor (Homo sapiens, UniProt O95838, D470N); assay: GLP-2 receptor potency assay (cAMP AlphaScreen, HEK293 cells stably expressing GLP-2R); type: cell-based; conditions: cAMP response, HEK293 cells expressing human GLP-2R
T2 sequence (O95838 1-553 D470N): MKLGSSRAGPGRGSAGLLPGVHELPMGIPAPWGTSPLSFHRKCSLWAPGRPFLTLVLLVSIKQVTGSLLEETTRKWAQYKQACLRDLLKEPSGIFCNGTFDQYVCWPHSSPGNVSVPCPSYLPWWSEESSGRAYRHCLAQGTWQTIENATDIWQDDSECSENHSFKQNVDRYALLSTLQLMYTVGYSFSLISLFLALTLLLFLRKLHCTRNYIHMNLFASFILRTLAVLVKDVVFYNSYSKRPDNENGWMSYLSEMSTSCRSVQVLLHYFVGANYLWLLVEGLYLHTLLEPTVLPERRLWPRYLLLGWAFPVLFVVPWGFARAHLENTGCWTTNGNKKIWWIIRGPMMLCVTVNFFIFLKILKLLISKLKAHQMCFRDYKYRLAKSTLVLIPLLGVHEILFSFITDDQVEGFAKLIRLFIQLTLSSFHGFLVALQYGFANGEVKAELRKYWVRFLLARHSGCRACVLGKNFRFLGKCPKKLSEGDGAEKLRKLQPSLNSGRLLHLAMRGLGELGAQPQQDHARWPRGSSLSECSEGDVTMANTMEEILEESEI
Procedure, shortened: (§1)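 HEK293 cells stably expressing human GLP-2R (G418-selected clone); intracellular cAMP measured by AlphaScreen. Responses normalized to positive and vehicle controls; EC50 and maximal response from 4-parameter logistic fit.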

[2] = Solubility assessment by turbidity absorbance at 325 nm; type: physicochemical; conditions: 1 mg/ml peptide
Description: A stock solution of the test peptide (2 mg/ml; determined from the weighed amount of peptide) in demineralized water adjusted to pH 2.5 with HCl was prepared, and aliquots were diluted 1:1 in 100 mM acetate buffer (pH 4.0 and pH 5.0), 100 mM histidine buffer (pH 6.0 and pH 7.0) and 100 mM phosphate buffer (pH 6.0, pH 7.0 and pH7.5), respectively, and loaded in a standard flat-bottom, non-sterile 96-well UV Microplate. The absorbance of samples (single samples, n=1) at 280 and 325 nm was measured in an absorbance-based plate reader, which was preheated to ambient temperature (typically 25° C.).

[3] = test system: Normal chow-fed C57BL/6J male mice; assay: Effect on fasting glucose and intestinal weight in normal mice; type: in vivo; conditions: for Small intestinal wet weight: 250 nmol/kg s.c. once daily for 4 days, sacrificed 24 hours after final dosing; for Fasting blood glucose: day 0, fasted mice, after a single s.c. injection, 250 nmol/kg
Description: Normal chow-fed C57BL/6J male mice were used. The mice were kept in standard housing conditions, light-, temperature-, and humidity-controlled room (12:12 h light-dark cycle, with lights on at 06.00-18.00 h; 20-22° C.; 50-80% relative humidity). Each dosing group consisted of 6 animals. Mice were dosed once daily with 250 nmol/kg with the test compounds or vehicle for 4 days via subcutaneous administration.
On day 0 mice were fasted and blood glucose levels measured after a single s.c. injection with peptides. Animals were sacrificed 24 hours after final dosing on day 3, and small intestinal wet weights were measured.

human GLP-2 receptor [4] = target: T3, human GLP-2 receptor (Homo sapiens, UniProt O95838); assay: GLP-2 receptor potency assay (cAMP AlphaScreen, HEK293 cells stably expressing GLP-2R); type: cell-based
T3 sequence (O95838 1-553 D470N): T2 sequence (O95838 1-553 D470N)
Procedure, shortened: as §1

[5] = target: human glucagon-like peptide 1 receptor (GLP-1R) (human) (UniProt P43220)
[6] = cAMP response, HEK293 cells expressing human GLP-1R, read-out: EC50 GLP-1
[7] = 100 mM acetate buffer pH 4.0, ambient temperature, read-out: Solubility, Acetate buffer pH 4
[8] = 100 mM acetate buffer pH 5.0, ambient temperature, read-out: Solubility, Acetate buffer pH 5
[9] = 100 mM histidine buffer pH 6.0, ambient temperature, read-out: Solubility, Histidine buffer pH 6
[10] = 100 mM histidine buffer pH 7.0, ambient temperature, read-out: Solubility, Histidine buffer pH 7
[11] = 100 mM phosphate buffer pH 6.0, ambient temperature, read-out: Solubility, Phosphate buffer pH 6
[12] = 100 mM phosphate buffer pH 7.0, ambient temperature, read-out: Solubility, Phosphate buffer pH 7
[13] = 100 mM phosphate buffer pH 7.5, ambient temperature, read-out: Solubility, Phosphate buffer pH 7.5

## CC[C@H](C)[C@H](NC(=O)[C@H](CC(C)C)NC(=O)[C@H](Cc1c[nH]c2ccccc12)NC(=O)[C@H](C)NC(=O)[C@@H](NC(=O)[C@H](Cc1ccccc1)NC(=O)[C@H](CC(=O)O)NC(=O)[C@H](CCCNC(=N)N)NC(=O)[C@H](C)NC(=O)[C@H](C)NC(=O)[C@H](CCC(N)=O)NC(=O)[C@H](CCC(=O)O)NC(=O)[C@H](CC(=O)O)NC(=O)[C@H](CC(C)C)NC(=O)[C@@H](NC(=O)[C@@H](NC(=O)[C@H](C)NC(=O)[C@H](CC(C)C)NC(=O)[C@H](CCC(=O)O)NC(=O)[C@H](CO)NC(=O)[C@@H](NC(=O)[C@H](Cc1ccccc1)NC(=O)[C@H](CO)NC(=O)CNC(=O)[C@H](CCC(=O)O)NC(=O)C(C)(C)NC(=O)[C@@H](N)Cc1c[nH]cn1)[C@@H](C)O)[C@@H](C)O)[C@@H](C)CC)[C@@H](C)CC)C(=O)N[C@@H](C)C(=O)N[C@@H](Cc1c[nH]cn1)C(=O)N[C@@H](CCCCN)C(=O)N[C@H](C(=O)N[C@H](C(=O)N[C@@H](CC(=O)O)C(=O)O)[C@@H](C)O)[C@@H](C)CC [Compound 1] (H-H[Aib]EGSFTSELATILDEQAARDFIAWLIAHKITD-OH)
Human GLP-1 receptor; [6]
  pEC50: 10.85
Human GLP-2 receptor [1]
  pEC50: 10.44
[2]; [7]
  solubility: ≥ 1000 µg/mL
[2]; [8]
  solubility: < 1000 µg/mL
[2]; [9]
  solubility: ≥ 1000 µg/mL
[2]; [10]
  solubility: ≥ 1000 µg/mL
[2]; [11]
  solubility: ≥ 1000 µg/mL
[2]; [12]
  solubility: ≥ 1000 µg/mL
[2]; [13]
  solubility: ≥ 1000 µg/mL
[3]
  Small intestinal wet weight: 0.90 g
  Fasting blood glucose: 5.76 mM

## CC[C@H](C)[C@H](NC(=O)[C@H](Cc1ccccc1)NC(=O)[C@H](CC(=O)O)NC(=O)[C@H](CCCNC(=N)N)NC(=O)[C@H](C)NC(=O)[C@H](C)NC(=O)[C@H](CCC(N)=O)NC(=O)[C@H](CCC(=O)O)NC(=O)[C@H](CC(=O)O)NC(=O)[C@H](CC(C)C)NC(=O)[C@@H](NC(=O)[C@@H](NC(=O)[C@H](C)NC(=O)[C@H](CC(C)C)NC(=O)[C@H](CCC(=O)O)NC(=O)[C@H](CO)NC(=O)[C@@H](NC(=O)[C@H](Cc1ccccc1)NC(=O)[C@@H](NC(=O)CNC(=O)[C@H](CCC(=O)O)NC(=O)C(C)(C)NC(=O)[C@@H](N)Cc1c[nH]cn1)[C@@H](C)O)[C@@H](C)O)[C@@H](C)O)[C@@H](C)CC)C(=O)N[C@@H](C)C(=O)N[C@@H](Cc1c[nH]c2ccccc12)C(=O)N[C@@H](CC(C)C)C(=O)N[C@H](C(=O)N[C@@H](CCC(=O)O)C(=O)N[C@@H](Cc1c[nH]cn1)C(=O)N[C@@H](CCCCN)C(=O)N[C@H](C(=O)N[C@H](C(=O)N[C@@H](CC(=O)O)C(=O)O)[C@@H](C)O)[C@@H](C)CC)[C@@H](C)CC [Compound 5] (H-H[Aib]EGTFTSELATILDEQAARDFIAWLIEHKITD-OH)
Human GLP-1 receptor; [6]
  pEC50: 11.01
Human GLP-2 receptor [1]
  pEC50: 10.17
[2]; [7]
  solubility: ≥ 1000 µg/mL
[2]; [8]
  solubility: < 1000 µg/mL
[2]; [9]
  solubility: ≥ 1000 µg/mL
[2]; [10]
  solubility: ≥ 1000 µg/mL
[2]; [11]
  solubility: ≥ 1000 µg/mL
[2]; [12]
  solubility: ≥ 1000 µg/mL
[2]; [13]
  solubility: ≥ 1000 µg/mL
[3]
  Small intestinal wet weight: 0.90 g
  Fasting blood glucose: 5.43 mM

## CC[C@H](C)[C@H](NC(=O)[C@H](CC(C)C)NC(=O)[C@H](Cc1c[nH]c2ccccc12)NC(=O)[C@H](CO)NC(=O)[C@@H](NC(=O)[C@H](Cc1ccccc1)NC(=O)[C@H](CC(=O)O)NC(=O)[C@H](CCCNC(=N)N)NC(=O)[C@H](C)NC(=O)[C@H](C)NC(=O)[C@H](CCC(N)=O)NC(=O)[C@H](CCC(=O)O)NC(=O)[C@H](CC(=O)O)NC(=O)[C@H](CC(C)C)NC(=O)[C@@H](NC(=O)[C@@H](NC(=O)[C@H](C)NC(=O)[C@H](CC(C)C)NC(=O)[C@H](CCC(=O)O)NC(=O)[C@H](CO)NC(=O)[C@@H](NC(=O)[C@H](Cc1ccccc1)NC(=O)[C@@H](NC(=O)CNC(=O)[C@H](CCC(=O)O)NC(=O)C(C)(C)NC(=O)[C@@H](N)Cc1c[nH]cn1)[C@@H](C)O)[C@@H](C)O)[C@@H](C)O)[C@@H](C)CC)[C@@H](C)CC)C(=O)N[C@@H](C)C(=O)N[C@@H](Cc1c[nH]cn1)C(=O)N[C@@H](CCCCN)C(=O)N[C@H](C(=O)N[C@H](C(=O)N[C@@H](CC(=O)O)C(=O)O)[C@@H](C)O)[C@@H](C)CC [Compound 34] (H-H[Aib]EGTFTSELATILDEQAARDFISWLIAHKITD-OH)
Human GLP-1 receptor; [6]
  pEC50: 11.30
Human GLP-2 receptor [1]
  pEC50: 10.31
[3]
  Small intestinal wet weight: 0.93 g
  Fasting blood glucose: 5.62 mM

## CC[C@H](C)[C@H](NC(=O)[C@H](Cc1ccccc1)NC(=O)[C@H](CC(=O)O)NC(=O)[C@H](CCCNC(=N)N)NC(=O)[C@H](C)NC(=O)[C@H](C)NC(=O)[C@H](CCC(N)=O)NC(=O)[C@H](CCC(=O)O)NC(=O)[C@H](CC(=O)O)NC(=O)[C@H](CC(C)C)NC(=O)[C@@H](NC(=O)[C@@H](NC(=O)[C@H](C)NC(=O)[C@H](CC(C)C)NC(=O)[C@H](CCC(=O)O)NC(=O)[C@H](CO)NC(=O)[C@@H](NC(=O)[C@H](Cc1ccccc1)NC(=O)[C@@H](NC(=O)CNC(=O)[C@H](CCC(=O)O)NC(=O)C(C)(C)NC(=O)[C@@H](N)Cc1c[nH]cn1)[C@@H](C)O)[C@@H](C)O)[C@@H](C)O)[C@@H](C)CC)C(=O)N[C@@H](CC(N)=O)C(=O)N[C@@H](Cc1c[nH]c2ccccc12)C(=O)N[C@@H](CC(C)C)C(=O)N[C@@H](CCCCN)C(=O)N[C@@H](C)C(=O)N[C@@H](Cc1c[nH]cn1)C(=O)N[C@@H](CCCCN)C(=O)N[C@H](C(=O)N[C@H](C(=O)N[C@@H](CC(=O)O)C(=O)O)[C@@H](C)O)[C@@H](C)CC [Compound 35] (H-H[Aib]EGTFTSELATILDEQAARDFINWLKAHKITD-OH)
Human GLP-1 receptor; [6]
  pEC50: 11.22
Human GLP-2 receptor [1]
  pEC50: 10.32
[3]
  Small intestinal wet weight: 0.81 g
  Fasting blood glucose: 5.95 mM

## CC[C@H](C)[C@H](NC(=O)[C@H](CC(C)C)NC(=O)[C@H](Cc1c[nH]c2ccccc12)NC(=O)[C@H](C)NC(=O)[C@@H](NC(=O)[C@H](Cc1ccccc1)NC(=O)[C@H](CCC(=O)O)NC(=O)[C@H](CCCNC(=N)N)NC(=O)[C@H](CO)NC(=O)[C@H](C)NC(=O)[C@H](CCC(N)=O)NC(=O)[C@H](CCC(=O)O)NC(=O)[C@H](CCC(=O)O)NC(=O)[C@H](CC(C)C)NC(=O)[C@@H](NC(=O)[C@@H](NC(=O)[C@H](CO)NC(=O)[C@H](CC(C)C)NC(=O)[C@H](CCC(=O)O)NC(=O)[C@H](CO)NC(=O)[C@H](CO)NC(=O)[C@H](Cc1ccccc1)NC(=O)[C@@H](NC(=O)CNC(=O)[C@H](CCC(=O)O)NC(=O)C(C)(C)NC(=O)[C@@H](N)Cc1c[nH]cn1)[C@@H](C)O)[C@@H](C)O)[C@@H](C)CC)[C@@H](C)CC)C(=O)N[C@@H](C)C(=O)N[C@@H](Cc1c[nH]cn1)C(=O)N[C@@H](CCCCN)C(=O)N[C@H](C(=O)N[C@H](C(=O)N[C@@H](CCC(=O)O)C(=O)O)[C@@H](C)O)[C@@H](C)CC [Compound 39] (H-H[Aib]EGTFSSELSTILEEQASREFIAWLIAHKITE-OH)
Human GLP-1 receptor
  pEC50: 10.52
Human GLP-2 receptor [4]
  pEC50: 9.02

## Liraglutide (NN2211; Victoza) (peptide)
[5]
  EC50 GLP-1 (nM); cAMP AlphaScreen: 0.029 nM
